Experimental data published in PubChem BioAssay AID789 (SRMLSC, 2007).
pIC50: −log10 of the molar value. The source made the active and inactive calls. The rule behind the calls is not given here.

Legend:
[1] = tested on: S. cerevisiae apl2Δ mutant growth inhibition; assay: growth inhibition of apl2Δ yeast, dose response, selectivity assay for post-Golgi transport modulator project, S. cerevisiae, secondary screen, background strain comparison (AID 789)
[2] = as above; settings: S. cerevisiae background (wild-type parent) strain growth inhibition

Compound | IC50 [1] | pIC50 [2] | pIC50 [1]
COc1ccccc1N1CCN(CC(O)c2ccc3cc[nH]c3c2)CC1 (stereo not given) | > 10 µM (inactive) | < 5.00 | 
C=CCc1ccccc1OCC(O)CN1CCN(Cc2ccc3c(c2)OCO3)CC1 (stereo not given) |  | < 5.00 | 4.71
Cc1cc(O)c(/C=N/Nc2ccc(Cl)cc2)c(=O)o1 | 9.39 µM (inactive) | 5.33 | 
Cc1ccc(S(=O)(=O)N2CC3CC(C2)c2cccc(=O)n2C3)cc1 (stereo not given) | > 10 µM (inactive) | < 5.00 | 
CCN1C(=O)c2ccc(C(=O)NCc3ccccc3)cc2C1=O | > 10 µM (inactive) | < 5.00 | 
COC(=O)c1ccc(CSc2nnc(NC(C)C)s2)cc1 | > 10 µM (inactive) | < 5.00 | 
Cc1ccnc(N2C(=O)c3cccc4c([N+](=O)[O-])ccc(c34)C2=O)c1 | 7.94 µM (inactive) | 5.37 | 
Cc1ccc(CN2CCN(/N=C/c3cc(Br)ccc3O)CC2)cc1 | > 10 µM (inactive) | < 5.00 | 
CCC(C)(C)n1nnnc1C(c1cc2cc3c(cc2[nH]c1=O)OCO3)N1CCN(C)CC1 (stereo not given) | > 10 µM (inactive) | < 5.00 | 
O=C(Nc1nnc(-c2ccc(Cl)cc2)o1)c1ccccc1Br | > 10 µM (inactive) | 4.88 | 
CCN(CC)c1nc2cc(OC)ccc2cc1C#N | > 10 µM (inactive) | < 5.00 | 
O=S(=O)(c1cnccc1N1CCN(/N=C/c2ccc(Br)cc2)CC1)N1CCCCC1 | > 10 µM (inactive) | < 5.00 | 
COc1ccc(NC(=O)c2ccc(CN3CCN(c4ccccc4)CC3)cc2)cc1 | > 10 µM (inactive) | < 5.00 | 
CCn1c(=O)[nH]c2cc(C(=O)N3CCN(c4ccccc4)CC3)ccc2c1=O | > 10 µM (inactive) | < 5.00 | 
CCOC(=O)C1=C(N)N2C(=O)C(C)SC2=C(C(=O)OC)C1c1ccccc1OC (stereo not given) | 9.99 µM (inactive) | 6.79 | 
CCOC(=O)NC(Nc1ccc(S(N)(=O)=O)cc1)(C(=O)OCC)C(F)(F)F (stereo not given) | > 10 µM (inactive) | < 5.00 | 
COc1ccc(N2CCN(c3oc(-c4ccco4)nc3C#N)CC2)cc1 | > 10 µM (inactive) | < 5.00 | 
Cc1nnc(-c2cccc(Br)c2)c2cn(-c3ccccc3)nc12 | > 10 µM (inactive) | < 5.00 | 
COc1cc(CN2CCN(c3ccc(C)cc3)CC2)cc([N+](=O)[O-])c1O | > 10 µM (inactive) | < 5.00 | 
CCOC(=O)c1ccc(NC(=O)c2ccc(CN3CCOCC3)cc2)cc1 | > 10 µM (inactive) | < 5.00 | 
O=C(Nc1nnc(-c2ccc3c(c2)CCCC3)o1)c1ccccc1Cl | > 10 µM (inactive) | 4.97 | 
O=C(c1ccco1)N1CCN(c2ncnc3c2[nH]c2ccccc23)CC1 | > 10 µM (inactive) | < 5.00 | 
Cc1ccc(C2N(c3ccc(Cl)c(Cl)c3)C(=O)C3CCCN32)o1 (stereo not given) | > 10 µM (inactive) | < 5.00 | 
O=C(NCC(c1cccnc1)N1CCN(c2ccccc2)CC1)C1CCCCC1 (stereo not given) | > 10 µM (inactive) | < 5.00 | 
CC1CC(C)CN(CC(C)(C)NS(=O)(=O)c2ccc(Cl)cc2)C1 (stereo not given) | > 10 µM (inactive) | < 5.00 | 
N#Cc1cn(-c2ccccc2)nc1-c1cc2ccccc2oc1=O | > 10 µM (inactive) | < 5.00 | 
CN1C(=O)/C(=C/c2cccn2-c2ccc3ccccc3c2)C(=O)NC1=S | 11.3 µM (inactive) | 5.18 | 

Compound | IC50 [1] | pIC50 [2] | pIC50 [1]
COc1ccc(C(=O)Nc2ccc(Cl)cc2C(=O)N2CCCC(C)C2)cc1 (stereo not given) |  | < 5.00 | 4.65
Cc1nn(-c2ccccn2)c(C)c1Oc1ccccc1O | > 10 µM (inactive) | < 5.00 | 
Cc1ccc(C(=O)NCc2occc2C(=O)O)o1 | > 10 µM (inactive) | < 5.00 | 
CCOC(=O)Cc1c(C)c2ccc(N(CC)CC)cc2oc1=O | > 10 µM (inactive) | < 5.00 | 
Cc1nn(Cc2cccc(C(=O)NC(C)c3ccc(C(C)(C)C)cc3)c2)c(C)c1[N+](=O)[O-] (stereo not given) | > 10 µM (inactive) | < 5.00 | 
Nc1c(C(=O)OCC2CCCO2)c2nc3ccccc3nc2n1-c1ccc2c(c1)OCCO2 (stereo not given) | > 10 µM (inactive) | < 5.00 | 
O=C1OCC2=C1C(c1ccc(F)cc1)Sc1ccccc1N2 (stereo not given) | > 10 µM (inactive) | < 5.00 | 
COC(=O)C1=CN(CCCN2CCCC2=O)C=C(C(=O)OC)C1c1ccccc1C(F)(F)F | > 10 µM (inactive) | < 5.00 | 
Cc1cccc(-c2c3c(=O)n(C)c(=O)n(C)c3cn2C2CCCCC2)c1 | > 10 µM (inactive) | < 5.00 | 
COc1ccc(NC(=O)N(C2CCCCC2)C(C)c2cccnc2)c(OC)c1 (stereo not given) |  | 4.78 | 4.90
Cc1c(C)c2cc(Cl)c(O)c(CN3CCN(C)CC3)c2oc1=O | > 10 µM (inactive) | < 5.00 | 
CC1CN(CC(O)COc2ccc(C(C)C)cc2)CC(C)O1 (stereo not given) | > 10 µM (inactive) | < 5.00 | 
O=C(N/N=C/c1ccc(OC(=O)c2ccccc2)cc1)c1ccc(CN2CCOCC2)cc1 | > 10 µM (inactive) | < 5.00 | 
c1ccc(Nc2cc(-c3ccccc3)nc3ncnn23)cc1 | > 10 µM (inactive) | < 5.00 | 
O=C(COc1ccc(Br)cc1F)NC1CCN(Cc2ccccc2)CC1 | > 10 µM (inactive) | < 5.00 | 
FC(F)(F)COc1nc(N2CCCCC2)nc(N2CCNCC2)n1 | > 10 µM (inactive) | < 5.00 | 
Cc1ccc(C(=O)OCn2ncc(Cl)c(Cl)c2=O)cc1 | > 10 µM (inactive) | 5.34 | 
Cc1ccc(C(C)C)c(OCCCN2CC(C)OC(C)C2)c1 (stereo not given) | > 10 µM (inactive) | < 5.00 | 
O=C(NC1CCCC1)C(c1ccsc1)N(C(=O)Cc1cccs1)c1ccc(F)cc1 (stereo not given) | > 10 µM (inactive) | < 5.00 | 
CCOC(=O)c1c(CN2CCCCC2C)oc2ccc(OC)cc12 (stereo not given) | > 10 µM (inactive) | < 5.00 | 
CCc1ccc(N(C(=O)c2csnn2)C(C(=O)NC(C)(C)C)c2ccncc2)cc1 (stereo not given) | > 10 µM (inactive) | < 5.00 | 
O=C(NCCSCc1ccc(Cl)cc1Cl)c1ccc(CN2CCOCC2)cc1 | > 10 µM (inactive) | < 5.00 | 
Cc1ccc(SC(=O)COc2ccc(C)c(C)c2)cc1 | > 10 µM (inactive) | < 5.00 | 
CC(=O)NC1C(c2nc3ccccc3s2)=C(c2ccccc2)C(=O)N1c1ccc(C)cc1 (stereo not given) | 2.89 µM (inactive) | 5.72 | 
CC(=O)c1cnc2nc(C)nn2c1C | > 10 µM (inactive) | < 5.00 | 
CC(C)Oc1ccc(/C(O)=C2/C(=O)C(=O)N(CCN(C)C)C2c2ccco2)cc1 (stereo not given) | > 10 µM (inactive) | < 5.00 | 
CCCCCOc1ccc(Cl)cc1CN1CCOCC1 | > 10 µM (inactive) | < 5.00 | 

Compound | IC50 [1] | pIC50 [2] | pIC50 [1]
OC(COCc1ccc(Cl)cc1)CN1CC=C(c2ccccc2)CC1 (stereo not given) |  | 4.68 | 5.07
ON=Cc1cccn1-c1ccccc1 | > 10 µM (inactive) | < 5.00 | 
O=S(=O)(NCC(c1cccnc1)N1CCN(c2ccccc2)CC1)c1cccs1 (stereo not given) | > 10 µM (inactive) | < 5.00 | 
O=C(O)c1cc(-c2ccc(/C=N/Nc3ccc(Cl)cc3)o2)ccc1Cl |  | 4.79 | 4.81
c1ccc2c(c1)oc1c(Nc3ccc(CN4CCOCC4)cc3)ncnc12 | > 10 µM (inactive) | < 5.00 | 
CCOC(=O)c1cc2c(ccn2C)n1CC(=O)N1CCN(c2ccccc2OC)CC1 | > 10 µM (inactive) | < 5.00 | 
O=C(Cc1cccs1)Nc1nc2c(s1)CCCC2 | > 10 µM (inactive) | < 5.00 | 
Cc1cc([N+](=O)[O-])c(-c2ccc(/C=N/n3cnnc3)o2)cc1Cl | 0.526 µM (inactive) | 6.87 | 
OC(Cn1ccnc1)c1ccc(Cl)cc1Cl (stereo not given) | > 10 µM (inactive) | < 5.00 | 
Cc1cc(C)c2c(c1)/C(=C/C(=O)c1ccc(Br)s1)C(=O)N2 | 1.55 µM (inactive) | 5.85 | 
N=c1c2c(-c3ccccc3)c(-c3ccccc3)n(Cc3ccco3)c2ncn1Cc1ccco1 |  | 4.67 | 4.78
CCCCSCCCNC(=O)Nc1cccc(OC)c1 | > 10 µM (inactive) | < 5.00 | 
COc1ccc(Nc2nc(N)nc(CSc3nnc(N)s3)n2)cc1 | > 10 µM (inactive) | < 5.00 | 
O=C(OCn1ncc(Cl)c(Cl)c1=O)c1ccccc1Cl | > 10 µM (inactive) | 4.78 | 
COCCCNc1ccnc2c(Cl)cccc12 | > 10 µM (inactive) | < 5.00 | 
COc1ccc(C2CC(=O)C3=C(C2)NC(C)=C(C(=O)Nc2ccccc2C)C3c2coc3ccc(C)cc3c2=O)cc1OC (stereo not given) | > 10 µM (inactive) | < 5.00 | 
CCCC(=O)N1CCN(c2ccc(NC(=O)c3cc4ccccc4o3)cc2Cl)CC1 |  | 4.72 | 4.90
COCCCn1c2nc3ccccc3nc2c2c(=O)n(-c3ccccc3OC)cnc21 | > 10 µM (inactive) | < 5.00 | 
COc1cccc(NC(=O)c2ccc(CN3CCN(c4ccccc4)CC3)cc2)c1 | > 10 µM (inactive) | < 5.00 | 
C=C(C)C1CC=C(CN2CCC(C(=O)OCC)CC2)CC1 (stereo not given) | > 10 µM (inactive) | < 5.00 | 
COc1ccc2nc(NCCCNC(=O)c3cc(OC)c(OC)c(OC)c3)c(C#N)cc2c1 | > 10 µM (inactive) | < 5.00 | 
Cn1c(=O)c2nc(NCc3ccccc3)cnc2n(C)c1=O | > 10 µM (inactive) | < 5.00 | 
O=C1c2cccc3c([N+](=O)[O-])ccc(c23)C(=O)N1c1ccc(Cl)cn1 | 14.5 µM (inactive) | 5.22 | 
Cc1cc(N2C(=O)C3CCCN3C2c2sccc2C)no1 (stereo not given) | > 10 µM (inactive) | < 5.00 | 
COc1cccc(-c2cc(C(=O)N3CCN(C(c4ccccc4)c4ccccc4)CC3)no2)c1 | > 10 µM (inactive) | < 5.00 | 
Cc1nc(NC(=O)c2ccccc2)sc1-c1csc(NCc2ccccc2)n1 | > 10 µM (inactive) | < 5.00 | 
